Results on two molecules are retold here after ChEMBL document CHEMBL4507319 (2021).

The target of test [1] is Activin receptor type-1-like (Homo sapiens) (UniProt P37023). Particulars: Compound concentration 1000.0 nM.
For test [2], the target named is Ankyrin repeat and protein kinase domain-containing protein 1 (Homo sapiens) (UniProt Q8NFD2). The settings on record: Compound concentration 1000.0 nM.
The target in test [3] is Casein kinase I isoform gamma-2 (Homo sapiens) (UniProt P78368). Particulars: Compound concentration 1000.0 nM.
Test [4] has as its target Mast/stem cell growth factor receptor Kit (Homo sapiens) (UniProt P10721). Particulars: Compound concentration 1000.0 nM.
Test [5] relates to Mast/stem cell growth factor receptor Kit (Homo sapiens), P10721 [D816H]. The settings on record: Compound concentration 1000.0 nM.
The target of test [6] is T1, Serine/threonine-protein kinase STK11 (Homo sapiens) (UniProt Q15831).
T1 sequence (whole entry): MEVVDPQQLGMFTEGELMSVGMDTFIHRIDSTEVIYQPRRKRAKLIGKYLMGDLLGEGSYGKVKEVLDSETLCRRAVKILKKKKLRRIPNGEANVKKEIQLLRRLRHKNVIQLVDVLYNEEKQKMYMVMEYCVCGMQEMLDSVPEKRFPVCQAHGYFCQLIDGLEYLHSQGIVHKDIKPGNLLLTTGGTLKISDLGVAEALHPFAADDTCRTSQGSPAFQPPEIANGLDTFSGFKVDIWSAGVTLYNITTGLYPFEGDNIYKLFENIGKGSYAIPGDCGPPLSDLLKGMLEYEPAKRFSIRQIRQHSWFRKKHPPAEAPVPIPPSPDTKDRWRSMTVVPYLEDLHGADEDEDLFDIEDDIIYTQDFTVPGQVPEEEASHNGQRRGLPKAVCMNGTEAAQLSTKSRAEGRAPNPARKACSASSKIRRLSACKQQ
The settings on record: Compound concentration 1000.0 nM.

The target in test [7] is Mitogen-activated protein kinase kinase kinase 14 (Homo sapiens) (UniProt Q99558). Particulars: Compound concentration 1000.0 nM.
The target of test [8] is cAMP-dependent protein kinase catalytic subunit beta (Homo sapiens) (UniProt P22694). Particulars: Compound concentration 1000.0 nM.
The target of test [9] is Ribosomal protein S6 kinase alpha-4 (Homo sapiens) (UniProt O75676). Particulars: Compound concentration 1000.0 nM.
The target of test [10] is Ribosomal protein S6 kinase alpha-1 (Homo sapiens, UniProt Q15418). The settings on record: Compound concentration 1000.0 nM.
Test [11] addresses T2, Serine/threonine-protein kinase TAO3 (Homo sapiens) (UniProt Q9H2K8).
T2 sequence (whole entry): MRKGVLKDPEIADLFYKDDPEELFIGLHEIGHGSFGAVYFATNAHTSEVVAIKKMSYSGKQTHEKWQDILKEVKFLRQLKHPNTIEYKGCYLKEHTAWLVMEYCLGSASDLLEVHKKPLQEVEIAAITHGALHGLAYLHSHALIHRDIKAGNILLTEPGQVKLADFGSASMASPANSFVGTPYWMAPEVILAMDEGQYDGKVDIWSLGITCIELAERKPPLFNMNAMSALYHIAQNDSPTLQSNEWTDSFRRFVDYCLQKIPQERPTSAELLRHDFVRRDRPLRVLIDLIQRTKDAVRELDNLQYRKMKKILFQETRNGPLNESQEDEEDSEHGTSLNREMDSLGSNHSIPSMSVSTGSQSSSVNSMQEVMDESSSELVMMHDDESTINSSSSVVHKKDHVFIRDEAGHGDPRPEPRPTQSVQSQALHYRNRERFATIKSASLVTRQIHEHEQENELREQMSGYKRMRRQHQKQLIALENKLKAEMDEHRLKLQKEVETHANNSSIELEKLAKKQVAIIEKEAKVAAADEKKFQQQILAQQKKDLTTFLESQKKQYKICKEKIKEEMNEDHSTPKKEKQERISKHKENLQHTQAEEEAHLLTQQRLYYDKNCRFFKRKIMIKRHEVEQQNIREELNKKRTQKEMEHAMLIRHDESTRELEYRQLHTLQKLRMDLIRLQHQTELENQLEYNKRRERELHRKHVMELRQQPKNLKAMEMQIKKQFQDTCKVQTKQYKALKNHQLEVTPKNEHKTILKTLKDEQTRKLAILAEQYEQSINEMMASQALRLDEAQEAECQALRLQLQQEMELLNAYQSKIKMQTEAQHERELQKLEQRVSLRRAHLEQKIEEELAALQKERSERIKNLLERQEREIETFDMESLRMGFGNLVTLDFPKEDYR
Particulars: Compound concentration 1000.0 nM.

Test [12] concerns the target T3, Serine/threonine-protein kinase ULK2 (Homo sapiens) (UniProt Q8IYT8).
T3 sequence (whole entry): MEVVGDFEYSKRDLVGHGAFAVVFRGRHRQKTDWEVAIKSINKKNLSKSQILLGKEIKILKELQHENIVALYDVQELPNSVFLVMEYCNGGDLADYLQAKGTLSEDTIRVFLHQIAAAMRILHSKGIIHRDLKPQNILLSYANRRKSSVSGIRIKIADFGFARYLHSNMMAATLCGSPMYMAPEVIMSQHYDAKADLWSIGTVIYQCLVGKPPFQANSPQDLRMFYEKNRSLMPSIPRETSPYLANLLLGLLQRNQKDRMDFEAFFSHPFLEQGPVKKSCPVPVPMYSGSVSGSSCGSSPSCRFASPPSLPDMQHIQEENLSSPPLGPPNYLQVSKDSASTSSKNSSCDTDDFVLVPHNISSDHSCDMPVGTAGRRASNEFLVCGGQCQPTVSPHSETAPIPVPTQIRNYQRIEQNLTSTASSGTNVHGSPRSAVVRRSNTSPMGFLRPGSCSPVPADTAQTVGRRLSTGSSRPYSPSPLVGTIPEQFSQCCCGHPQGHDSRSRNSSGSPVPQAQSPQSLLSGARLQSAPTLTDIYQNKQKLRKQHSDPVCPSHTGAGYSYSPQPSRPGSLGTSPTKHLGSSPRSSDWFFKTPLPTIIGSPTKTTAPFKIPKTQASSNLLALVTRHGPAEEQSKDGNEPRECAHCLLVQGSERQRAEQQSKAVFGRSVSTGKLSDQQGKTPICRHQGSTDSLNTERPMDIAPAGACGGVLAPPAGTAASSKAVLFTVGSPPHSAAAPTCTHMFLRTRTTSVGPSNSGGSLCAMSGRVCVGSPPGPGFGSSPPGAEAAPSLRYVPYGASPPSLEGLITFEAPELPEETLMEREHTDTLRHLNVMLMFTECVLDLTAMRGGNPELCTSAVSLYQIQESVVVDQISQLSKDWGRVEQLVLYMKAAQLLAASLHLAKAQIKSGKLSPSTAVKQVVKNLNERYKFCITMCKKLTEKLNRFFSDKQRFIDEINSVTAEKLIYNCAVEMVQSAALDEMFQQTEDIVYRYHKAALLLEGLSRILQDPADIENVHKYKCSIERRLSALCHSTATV
The settings on record: Compound concentration 1000.0 nM.

Test [13] deals with Sigma non-opioid intracellular receptor 1 (Homo sapiens) (UniProt Q99720). Particulars: Compound concentration 10.0 uM.
Sigma non-opioid intracellular receptor 1 (Homo sapiens), sequence (Q99720 whole entry): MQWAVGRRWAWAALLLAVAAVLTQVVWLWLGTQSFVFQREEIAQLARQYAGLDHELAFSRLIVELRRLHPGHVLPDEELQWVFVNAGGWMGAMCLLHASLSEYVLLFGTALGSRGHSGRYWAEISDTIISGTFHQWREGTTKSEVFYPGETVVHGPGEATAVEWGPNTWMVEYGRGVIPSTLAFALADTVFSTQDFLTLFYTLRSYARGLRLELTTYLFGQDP

Mast/stem cell growth factor receptor Kit (Homo sapiens), P10721 [D816H], sequence (P10721 whole entry D816H): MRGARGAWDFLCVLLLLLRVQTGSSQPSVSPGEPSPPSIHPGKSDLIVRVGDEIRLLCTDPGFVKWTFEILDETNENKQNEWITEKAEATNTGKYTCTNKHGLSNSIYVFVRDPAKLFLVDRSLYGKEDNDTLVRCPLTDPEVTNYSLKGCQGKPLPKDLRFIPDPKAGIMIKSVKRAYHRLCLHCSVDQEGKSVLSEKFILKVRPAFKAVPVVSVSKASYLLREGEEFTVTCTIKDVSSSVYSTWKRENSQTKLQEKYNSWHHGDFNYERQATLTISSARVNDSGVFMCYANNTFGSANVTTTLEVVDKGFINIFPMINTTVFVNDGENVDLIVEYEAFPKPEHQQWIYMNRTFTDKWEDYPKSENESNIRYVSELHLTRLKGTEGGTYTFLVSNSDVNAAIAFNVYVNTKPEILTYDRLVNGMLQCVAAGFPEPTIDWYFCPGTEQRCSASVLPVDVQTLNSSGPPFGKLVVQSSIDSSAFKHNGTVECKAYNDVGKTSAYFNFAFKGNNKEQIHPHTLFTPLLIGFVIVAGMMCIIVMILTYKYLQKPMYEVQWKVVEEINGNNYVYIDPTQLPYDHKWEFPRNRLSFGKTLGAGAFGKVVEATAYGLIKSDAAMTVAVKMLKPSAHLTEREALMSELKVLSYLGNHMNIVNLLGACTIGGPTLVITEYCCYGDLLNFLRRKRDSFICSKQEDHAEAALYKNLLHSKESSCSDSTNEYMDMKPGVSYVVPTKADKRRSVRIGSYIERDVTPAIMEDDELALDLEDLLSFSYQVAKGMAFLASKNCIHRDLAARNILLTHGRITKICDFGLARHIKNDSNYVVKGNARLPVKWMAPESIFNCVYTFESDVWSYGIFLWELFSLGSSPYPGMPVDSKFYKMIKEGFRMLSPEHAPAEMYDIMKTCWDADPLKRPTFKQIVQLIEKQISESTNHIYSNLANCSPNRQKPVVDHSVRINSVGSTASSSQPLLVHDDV
Ribosomal protein S6 kinase alpha-4 (Homo sapiens), sequence (O75676 whole entry, looked up): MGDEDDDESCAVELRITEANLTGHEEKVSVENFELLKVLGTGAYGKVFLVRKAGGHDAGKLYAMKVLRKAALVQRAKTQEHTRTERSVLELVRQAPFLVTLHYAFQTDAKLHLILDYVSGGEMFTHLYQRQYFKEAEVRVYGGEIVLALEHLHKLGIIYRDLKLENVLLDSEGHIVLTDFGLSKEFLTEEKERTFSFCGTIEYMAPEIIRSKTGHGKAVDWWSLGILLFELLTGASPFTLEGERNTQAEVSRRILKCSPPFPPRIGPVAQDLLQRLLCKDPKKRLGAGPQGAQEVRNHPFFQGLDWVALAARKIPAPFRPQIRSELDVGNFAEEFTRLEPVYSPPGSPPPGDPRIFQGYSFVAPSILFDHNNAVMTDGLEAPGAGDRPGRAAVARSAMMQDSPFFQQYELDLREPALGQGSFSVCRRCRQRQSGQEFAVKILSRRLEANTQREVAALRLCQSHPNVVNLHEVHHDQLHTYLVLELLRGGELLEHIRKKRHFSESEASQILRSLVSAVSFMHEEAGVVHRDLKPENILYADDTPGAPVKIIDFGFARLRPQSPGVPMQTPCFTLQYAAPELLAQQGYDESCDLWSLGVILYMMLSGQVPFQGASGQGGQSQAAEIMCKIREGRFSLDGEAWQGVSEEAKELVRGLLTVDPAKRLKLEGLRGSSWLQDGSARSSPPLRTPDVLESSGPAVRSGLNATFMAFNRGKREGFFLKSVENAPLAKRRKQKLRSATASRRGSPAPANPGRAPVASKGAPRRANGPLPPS
Ankyrin repeat and protein kinase domain-containing protein 1 (Homo sapiens), sequence (Q8NFD2 whole entry, the tested form may be a part, canonical isoform): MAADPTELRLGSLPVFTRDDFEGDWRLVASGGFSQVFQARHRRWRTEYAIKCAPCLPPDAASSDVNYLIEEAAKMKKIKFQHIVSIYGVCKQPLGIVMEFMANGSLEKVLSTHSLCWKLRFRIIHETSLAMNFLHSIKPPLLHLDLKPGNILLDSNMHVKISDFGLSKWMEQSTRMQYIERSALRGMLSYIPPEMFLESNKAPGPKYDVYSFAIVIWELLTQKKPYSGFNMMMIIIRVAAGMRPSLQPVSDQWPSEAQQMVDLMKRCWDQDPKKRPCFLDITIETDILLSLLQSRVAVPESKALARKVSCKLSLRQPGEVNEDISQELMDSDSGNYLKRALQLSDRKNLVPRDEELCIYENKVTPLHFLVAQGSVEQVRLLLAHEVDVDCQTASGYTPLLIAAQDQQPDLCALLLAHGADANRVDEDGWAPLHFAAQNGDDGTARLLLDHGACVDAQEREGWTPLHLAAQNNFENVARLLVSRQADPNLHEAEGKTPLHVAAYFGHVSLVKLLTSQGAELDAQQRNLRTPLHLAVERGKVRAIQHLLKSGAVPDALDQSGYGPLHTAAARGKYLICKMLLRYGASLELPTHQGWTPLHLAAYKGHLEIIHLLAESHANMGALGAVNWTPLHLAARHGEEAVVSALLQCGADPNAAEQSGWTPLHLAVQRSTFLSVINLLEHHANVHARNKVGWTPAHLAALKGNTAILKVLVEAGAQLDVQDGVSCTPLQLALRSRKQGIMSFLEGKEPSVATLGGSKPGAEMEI
Mast/stem cell growth factor receptor Kit (Homo sapiens), sequence (P10721 whole entry): as the sequence (P10721 whole entry D816H) above, with H816D counted along it
Activin receptor type-1-like (Homo sapiens), sequence (P37023 whole entry, the tested form may be a part): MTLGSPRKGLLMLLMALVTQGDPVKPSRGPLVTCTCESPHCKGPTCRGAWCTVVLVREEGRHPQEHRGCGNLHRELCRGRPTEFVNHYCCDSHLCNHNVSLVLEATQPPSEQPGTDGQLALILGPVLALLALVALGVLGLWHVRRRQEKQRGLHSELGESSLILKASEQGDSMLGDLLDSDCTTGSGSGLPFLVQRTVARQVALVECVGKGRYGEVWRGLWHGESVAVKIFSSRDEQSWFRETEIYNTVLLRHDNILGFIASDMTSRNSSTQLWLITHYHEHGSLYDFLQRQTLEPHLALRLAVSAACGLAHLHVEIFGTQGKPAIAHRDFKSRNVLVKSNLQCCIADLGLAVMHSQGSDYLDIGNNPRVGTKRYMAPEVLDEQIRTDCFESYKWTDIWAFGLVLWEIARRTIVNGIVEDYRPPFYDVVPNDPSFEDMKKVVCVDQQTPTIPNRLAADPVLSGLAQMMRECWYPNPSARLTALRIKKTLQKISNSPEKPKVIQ
Mitogen-activated protein kinase kinase kinase 14 (Homo sapiens), sequence (Q99558 whole entry, looked up): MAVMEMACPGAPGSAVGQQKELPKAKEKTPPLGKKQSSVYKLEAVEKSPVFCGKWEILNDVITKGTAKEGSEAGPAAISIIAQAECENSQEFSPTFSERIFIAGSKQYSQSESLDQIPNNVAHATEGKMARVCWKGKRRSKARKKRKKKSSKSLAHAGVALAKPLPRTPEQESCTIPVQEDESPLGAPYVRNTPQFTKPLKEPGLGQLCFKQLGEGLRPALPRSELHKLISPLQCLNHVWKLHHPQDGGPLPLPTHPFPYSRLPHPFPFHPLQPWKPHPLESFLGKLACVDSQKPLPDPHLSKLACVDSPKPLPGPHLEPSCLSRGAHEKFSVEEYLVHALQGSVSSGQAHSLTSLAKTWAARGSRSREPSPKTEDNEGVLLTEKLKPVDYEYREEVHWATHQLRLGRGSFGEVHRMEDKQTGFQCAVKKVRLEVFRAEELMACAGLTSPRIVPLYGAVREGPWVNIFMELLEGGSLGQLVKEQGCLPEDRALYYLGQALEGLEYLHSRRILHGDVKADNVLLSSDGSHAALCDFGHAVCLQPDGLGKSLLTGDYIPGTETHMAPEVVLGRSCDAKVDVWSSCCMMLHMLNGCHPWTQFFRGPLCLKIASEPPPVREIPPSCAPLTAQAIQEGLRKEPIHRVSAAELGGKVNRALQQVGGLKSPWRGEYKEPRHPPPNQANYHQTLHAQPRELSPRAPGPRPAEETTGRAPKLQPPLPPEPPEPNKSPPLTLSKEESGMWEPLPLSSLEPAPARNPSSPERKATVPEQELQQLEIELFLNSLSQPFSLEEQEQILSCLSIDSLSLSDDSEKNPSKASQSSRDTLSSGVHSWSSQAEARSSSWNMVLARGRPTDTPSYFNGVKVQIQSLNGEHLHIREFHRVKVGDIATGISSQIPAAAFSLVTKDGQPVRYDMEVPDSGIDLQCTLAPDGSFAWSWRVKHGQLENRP
Casein kinase I isoform gamma-2 (Homo sapiens), sequence (P78368 whole entry, looked up, canonical isoform): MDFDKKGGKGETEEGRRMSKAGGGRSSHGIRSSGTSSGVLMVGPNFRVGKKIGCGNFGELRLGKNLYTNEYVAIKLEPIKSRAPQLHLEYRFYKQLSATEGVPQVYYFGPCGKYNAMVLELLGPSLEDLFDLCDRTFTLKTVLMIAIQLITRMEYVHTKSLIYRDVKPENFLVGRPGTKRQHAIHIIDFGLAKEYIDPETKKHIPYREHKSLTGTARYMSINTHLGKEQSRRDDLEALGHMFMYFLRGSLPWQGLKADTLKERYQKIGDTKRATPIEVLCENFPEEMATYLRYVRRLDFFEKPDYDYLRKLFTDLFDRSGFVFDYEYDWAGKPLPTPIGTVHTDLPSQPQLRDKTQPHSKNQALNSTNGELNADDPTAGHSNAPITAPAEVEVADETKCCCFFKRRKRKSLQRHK

Regarding `CCc1ccccc1C(=O)Nc1n[nH]c2c(C)c(F)c(C3C(C#N)=C(C)N(C)C(C)=C3C#N)cc12` [BAY-3827], the residual activity in [1] was 75%; in [2], 100%; in [3], 97%; in test [4], 84%; in test [5] it was 100%; in [6], 100%. For the same molecule, the residual activity in [7] was 75%; in test [8], 99%; in [9], 100%; in test [10], 1.8%; in test [11] it was 38%; in [12], 100%. Besides, the inhibition in test [13] was 30.5%.
In the case of `CC1=C(C#N)C(c2ccc3c(c2)c(NC(=O)c2ccccc2C)nn3C)C(C#N)=C(C)N1` [BAY-974], the residual activity in test [1] is 97%; in test [2], 92%; in [3], 95%; in test [4], 100%; in test [5] it was 64%; in [6], 89%. In addition, the residual activity in [7] was 69%; in test [8], 100%; in test [9], 89%; in [10], 100%; in test [11], 80%; in test [12], 72%. In addition, the inhibition in test [13] is 37.9%.

Usually inhibition stands for the percentage by which the read-out fell short of the control.
